# Laboratory results: ChEMBL document CHEMBL1201862, “PubChem BioAssay data set” (2004)
# Active and inactive are the calls of the source.
# Key:
# [1] = inhibitors of CMV-promoter luciferase reporter, dose response, counter-screen for Pax8 inhibitor project, cell-based, HEK293, luminescence, dry powder (AID 743020); assay type: functional
# [2] = target: DNA repair protein RAD52 homolog (Homo sapiens, UniProt P43351); assay type: functional, biochemical
# Streptococcus = experiment: Group A Streptococcus viability loss, dose response, counter-screen for streptokinase expression inhibitor project, luminescence, BacTiterGlo (AID 1915); assay type: functional, organism-based;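 note: potency for reduction of bacterial viability or growth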
# [3] = target: T1, Replicative DNA helicase DnaB (Mycobacterium tuberculosis, UniProt P9WMR3); experiment: DnaB intein splicing inhibitors, dose response, biochemical, cell-free fluorescence (AID 449749); assay type: functional
# T1 sequence (P9WMR3 whole entry): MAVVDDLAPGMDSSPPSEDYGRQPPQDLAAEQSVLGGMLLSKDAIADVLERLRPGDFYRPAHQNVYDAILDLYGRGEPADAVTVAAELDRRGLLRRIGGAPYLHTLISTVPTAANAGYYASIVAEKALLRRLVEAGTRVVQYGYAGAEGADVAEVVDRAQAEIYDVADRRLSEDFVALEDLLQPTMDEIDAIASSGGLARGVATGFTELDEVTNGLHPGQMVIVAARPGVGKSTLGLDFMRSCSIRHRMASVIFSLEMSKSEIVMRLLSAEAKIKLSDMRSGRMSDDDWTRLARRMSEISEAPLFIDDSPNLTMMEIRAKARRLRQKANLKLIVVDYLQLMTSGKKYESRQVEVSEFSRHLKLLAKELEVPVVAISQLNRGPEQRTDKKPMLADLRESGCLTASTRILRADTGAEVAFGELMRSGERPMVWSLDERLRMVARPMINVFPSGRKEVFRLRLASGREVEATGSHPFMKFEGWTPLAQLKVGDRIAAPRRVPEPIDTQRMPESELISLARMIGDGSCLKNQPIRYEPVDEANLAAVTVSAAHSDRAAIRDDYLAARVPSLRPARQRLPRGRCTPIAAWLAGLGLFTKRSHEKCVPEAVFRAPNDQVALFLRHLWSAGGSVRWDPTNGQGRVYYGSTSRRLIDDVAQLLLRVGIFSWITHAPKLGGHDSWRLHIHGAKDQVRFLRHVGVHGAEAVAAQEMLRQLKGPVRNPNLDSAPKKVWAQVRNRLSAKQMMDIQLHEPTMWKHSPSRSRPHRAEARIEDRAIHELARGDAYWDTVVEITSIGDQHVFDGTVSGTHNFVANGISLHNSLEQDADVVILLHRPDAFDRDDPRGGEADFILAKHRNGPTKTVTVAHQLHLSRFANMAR
# INS1 = experiment: beta cell apoptosis inhibitors, cytokine rescue, dose response, luminescence, retest (AID 449756); assay type: functional, cell-based; details: Rattus norvegicus;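 note: cell death triggered by IL-1 beta plus TNF-alpha plus IFN-gamma mixture; protective hits raise ATP signal compared with cytokine alone wells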
# [4] = system: Streptococcus sp. 'group A'; experiment: growth inhibition of control SK(-) GAS strain, dose response, counter-screen for streptokinase expression inhibitor project, luminescence, kanamycin, BacTiterGlo, confirmation (AID 1900); assay type: functional, organism-based
# [5] = target: Heat shock protein HSP 90-alpha (Homo sapiens, UniProt P07900); assay type: functional, organism-based
# [6] = cytotoxicity toward NIH3T3 fibroblasts, dose response, counter-screen, cell-based, ATP luminescence, mouse fibroblasts (AID 2010); assay type: functional;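 note: cells exposed to compound for about 90 hours before reading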
# [7] = inhibitors of intracellular T. cruzi replication, confirmation, NIH3T3 host cells, beta-gal luminescence (AID 2044); assay type: functional, cell-based;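 note: intracellular parasites grown in NIH/3T3 mouse fibroblasts as host cells; luminescent beta-galactosidase reporter signal from transgenic T. cruzi replicating inside host cells; inhibitors lower the luminescence signal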
# Protein RecA = target: T2, Protein RecA (Mycobacterium tuberculosis, UniProt P9WHJ3); experiment: Fluorescence Cell-Free Homogeneous Dose Retest to Identify Inhibitors of RecA-Intein Splicing Activity. [Related pubchem assays (depositor defined):AID2097, AID2223, AID489010, AID492950]; assay type: functional
# T2 sequence (P9WHJ3 whole entry): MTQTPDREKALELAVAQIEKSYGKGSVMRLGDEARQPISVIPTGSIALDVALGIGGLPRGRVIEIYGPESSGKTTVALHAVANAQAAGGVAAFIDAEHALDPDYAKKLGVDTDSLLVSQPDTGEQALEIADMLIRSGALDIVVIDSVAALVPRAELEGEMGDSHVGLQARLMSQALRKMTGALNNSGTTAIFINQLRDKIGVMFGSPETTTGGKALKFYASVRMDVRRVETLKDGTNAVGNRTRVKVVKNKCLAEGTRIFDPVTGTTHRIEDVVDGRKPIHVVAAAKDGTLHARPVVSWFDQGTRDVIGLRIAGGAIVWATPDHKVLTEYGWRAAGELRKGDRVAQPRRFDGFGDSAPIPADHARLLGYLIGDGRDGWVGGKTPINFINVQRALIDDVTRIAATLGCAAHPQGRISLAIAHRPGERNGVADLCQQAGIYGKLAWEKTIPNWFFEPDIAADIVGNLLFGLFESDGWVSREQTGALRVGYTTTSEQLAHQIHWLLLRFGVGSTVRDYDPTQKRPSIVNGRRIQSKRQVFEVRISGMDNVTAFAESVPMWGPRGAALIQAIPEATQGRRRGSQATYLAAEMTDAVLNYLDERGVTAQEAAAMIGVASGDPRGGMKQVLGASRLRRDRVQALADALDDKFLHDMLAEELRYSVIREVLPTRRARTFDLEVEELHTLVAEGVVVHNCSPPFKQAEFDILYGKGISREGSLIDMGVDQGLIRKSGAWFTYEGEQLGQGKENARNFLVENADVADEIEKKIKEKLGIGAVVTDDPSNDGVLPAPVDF
# [8] = target: T3, Apoptotic protease-activating factor 1 (Homo sapiens, UniProt O14727); assay type: functional
# T3 sequence (O14727 whole entry): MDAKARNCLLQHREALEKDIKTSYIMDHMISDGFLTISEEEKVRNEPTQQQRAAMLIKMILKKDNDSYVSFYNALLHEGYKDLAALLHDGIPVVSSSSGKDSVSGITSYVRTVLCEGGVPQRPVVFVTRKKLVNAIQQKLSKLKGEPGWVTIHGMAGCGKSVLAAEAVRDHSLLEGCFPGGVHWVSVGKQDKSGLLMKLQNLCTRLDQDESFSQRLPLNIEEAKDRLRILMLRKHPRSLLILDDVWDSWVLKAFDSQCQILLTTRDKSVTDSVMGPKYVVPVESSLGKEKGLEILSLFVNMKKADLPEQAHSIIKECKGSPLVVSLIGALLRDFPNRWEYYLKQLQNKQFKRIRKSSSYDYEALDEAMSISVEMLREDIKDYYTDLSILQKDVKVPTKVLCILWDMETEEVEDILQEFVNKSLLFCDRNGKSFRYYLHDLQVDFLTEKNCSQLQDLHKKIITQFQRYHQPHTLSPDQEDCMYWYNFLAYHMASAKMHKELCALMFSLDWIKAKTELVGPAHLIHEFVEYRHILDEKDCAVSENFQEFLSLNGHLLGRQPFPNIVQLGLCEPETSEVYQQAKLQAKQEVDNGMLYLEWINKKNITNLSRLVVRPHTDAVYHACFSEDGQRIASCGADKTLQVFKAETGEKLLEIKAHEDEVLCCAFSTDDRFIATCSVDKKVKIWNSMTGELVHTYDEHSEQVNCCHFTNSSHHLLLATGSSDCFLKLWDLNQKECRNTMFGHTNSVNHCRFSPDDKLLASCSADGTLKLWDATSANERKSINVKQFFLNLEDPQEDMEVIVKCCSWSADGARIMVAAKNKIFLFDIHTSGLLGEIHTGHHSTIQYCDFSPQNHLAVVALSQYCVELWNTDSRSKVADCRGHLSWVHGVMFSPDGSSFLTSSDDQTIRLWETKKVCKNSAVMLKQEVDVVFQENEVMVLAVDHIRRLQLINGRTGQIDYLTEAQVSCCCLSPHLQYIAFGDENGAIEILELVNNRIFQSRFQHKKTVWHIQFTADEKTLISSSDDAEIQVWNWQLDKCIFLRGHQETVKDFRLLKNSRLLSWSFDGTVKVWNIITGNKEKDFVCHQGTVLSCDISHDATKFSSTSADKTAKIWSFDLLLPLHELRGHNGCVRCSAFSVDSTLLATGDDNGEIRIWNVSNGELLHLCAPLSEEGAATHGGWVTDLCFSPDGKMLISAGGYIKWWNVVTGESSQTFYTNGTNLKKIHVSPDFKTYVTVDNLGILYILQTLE
# [9] = target: T4, Ubiquitin-conjugating enzyme E2 N (Homo sapiens, UniProt P61088); assay type: functional;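 note: Dose-response confirmation in a TR-FRET assay detecting UBC13-driven polyubiquitin chain formation, inhibition measured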
# T4 sequence (P61088 whole entry): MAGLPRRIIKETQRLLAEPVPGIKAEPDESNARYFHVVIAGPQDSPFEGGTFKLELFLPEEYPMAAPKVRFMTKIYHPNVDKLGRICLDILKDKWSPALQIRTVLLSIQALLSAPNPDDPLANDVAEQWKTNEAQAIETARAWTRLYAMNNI
# Melanocortin receptor 4 = Melanocortin receptor 4 (Homo sapiens, UniProt P32245); assay type: functional, cell-based;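 note: Cell-based assay with luminescence read-out, confirmatory dose-response testing for agonist activity of biased ligands at MC4R; human U2OS cells with tagged receptor and beta-arrestin; potency of agonists that increase receptor coupling to beta-arrestin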
# Sequence of Melanocortin receptor 4 (P32245 whole entry): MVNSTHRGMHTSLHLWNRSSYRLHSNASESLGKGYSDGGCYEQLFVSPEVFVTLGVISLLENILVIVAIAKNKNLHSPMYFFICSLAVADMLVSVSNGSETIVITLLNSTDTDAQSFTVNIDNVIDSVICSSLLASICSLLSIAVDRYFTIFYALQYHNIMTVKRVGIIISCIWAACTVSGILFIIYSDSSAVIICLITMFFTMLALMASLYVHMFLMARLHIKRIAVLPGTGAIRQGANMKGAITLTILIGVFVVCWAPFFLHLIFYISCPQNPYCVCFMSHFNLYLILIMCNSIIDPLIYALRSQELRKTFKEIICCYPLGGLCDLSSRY
# H9c2 = experiment: cells; assay type: functional, cell-based; details: Rattus norvegicus, H9c2, Myocardium;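 note: confirmatory concentration-response retest of ultra-high-throughput screening hits for modulation of myocardial damage; cell death induced by hydrogen peroxide oxidative stress; compound pretreatment for 60 min then peroxide exposure for 2 h; potency is for protecting the cells against peroxide damage rather than for killing them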
# HeLa = experiment: HeLa cell cytotoxicity, dose response, cytotoxicity control, ATP luminescence, cherry-pick samples (AID 687004); assay type: functional, cell-based; details: Homo sapiens
# fMet-Leu-Phe receptor = fMet-Leu-Phe receptor (Homo sapiens, UniProt P21462); experiment: FPR ligands, dose response (AID 519); assay type: functional
# Sequence of fMet-Leu-Phe receptor (P21462 whole entry): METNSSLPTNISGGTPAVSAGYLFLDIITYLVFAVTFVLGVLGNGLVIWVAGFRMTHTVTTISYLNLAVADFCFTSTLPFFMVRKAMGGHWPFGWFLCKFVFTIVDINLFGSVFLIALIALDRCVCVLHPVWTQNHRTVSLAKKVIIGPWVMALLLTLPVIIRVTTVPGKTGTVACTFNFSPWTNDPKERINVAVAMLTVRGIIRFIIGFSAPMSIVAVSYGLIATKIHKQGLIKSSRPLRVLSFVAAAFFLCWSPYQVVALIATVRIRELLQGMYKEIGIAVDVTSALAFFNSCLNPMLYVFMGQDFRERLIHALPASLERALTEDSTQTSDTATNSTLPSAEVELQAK
# [10] = LGR2 antagonists, dose response, cell-based, HEK293, CRE-luciferase reporter, cherry pick, set 2 (AID 743343); assay type: functional;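 note: transfected cells were stimulated with diluted bursicon conditioned medium after compound addition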
# Paired box protein Pax-8 = Paired box protein Pax-8 (Homo sapiens, UniProt Q06710); experiment: inhibitors of PAX8-driven TPO luciferase reporter, dose response, RMG-I cells, cherry-pick (AID 687027); assay type: functional, cell-based;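 note: luciferase reporter driven by Pax8 target thyroperoxidase promoter measured by SteadyGlo luminescence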
# Sequence of Paired box protein Pax-8 (Q06710 whole entry): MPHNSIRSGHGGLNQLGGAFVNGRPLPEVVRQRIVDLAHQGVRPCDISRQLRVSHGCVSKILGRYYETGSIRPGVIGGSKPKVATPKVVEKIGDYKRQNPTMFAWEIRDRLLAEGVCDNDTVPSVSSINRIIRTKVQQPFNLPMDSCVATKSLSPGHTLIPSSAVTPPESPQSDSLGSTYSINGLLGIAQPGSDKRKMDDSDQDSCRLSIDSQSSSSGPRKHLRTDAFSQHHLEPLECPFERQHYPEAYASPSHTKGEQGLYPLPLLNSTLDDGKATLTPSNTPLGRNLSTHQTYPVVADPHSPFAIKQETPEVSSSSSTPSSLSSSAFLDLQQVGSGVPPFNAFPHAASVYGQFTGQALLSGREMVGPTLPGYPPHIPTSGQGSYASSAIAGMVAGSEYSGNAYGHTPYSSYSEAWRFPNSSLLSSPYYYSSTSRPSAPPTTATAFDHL
# [11] = non-specific cell cytotoxicity, dose response, cytotoxicity control for PAX8 inhibitor project, plate reader, dry powder samples (AID 743021); assay type: functional, cell-based
# [12] = HepG2 cell cytotoxicity, dose response, cytotoxicity control, plate reader, cherry-pick, antagonist series (AID 743416); assay type: functional, cell-based
# [13] = MC4R antagonists, dose response, counter-screen for LGR2 antagonist project, cell-based, plate reader, cherry pick (AID 743444); assay type: functional;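 note: transfected HEK 293 cells stimulated with alpha-MSH peptide; potency of inhibitors of the alpha-MSH evoked signal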
# [14] = HEK293 cell cytotoxicity, dose response, cytotoxicity control, plate reader, cherry-picked samples (AID 743446); assay type: functional, cell-based
# [15] = A549 cell cytotoxicity, dose response, cytotoxicity control, plate reader, cherry-pick, antagonist series (AID 743412); assay type: functional, cell-based
# [16] = target: NAD-dependent protein deacylase sirtuin-5, mitochondrial (Homo sapiens, UniProt Q9NXA8); experiment: SIRT5 desuccinylase inhibitors, dose response, biochemical, fluorescence imaging, cherry-pick, set 5 (AID 720591);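 note: desuccinylation of succinyl peptide AMC substrate read as fluorescence after trypsin release; potency of inhibitors that lower fluorescence and may act on trypsin instead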
# Sequence of NAD-dependent protein deacylase sirtuin-5, mitochondrial (Q9NXA8 whole entry): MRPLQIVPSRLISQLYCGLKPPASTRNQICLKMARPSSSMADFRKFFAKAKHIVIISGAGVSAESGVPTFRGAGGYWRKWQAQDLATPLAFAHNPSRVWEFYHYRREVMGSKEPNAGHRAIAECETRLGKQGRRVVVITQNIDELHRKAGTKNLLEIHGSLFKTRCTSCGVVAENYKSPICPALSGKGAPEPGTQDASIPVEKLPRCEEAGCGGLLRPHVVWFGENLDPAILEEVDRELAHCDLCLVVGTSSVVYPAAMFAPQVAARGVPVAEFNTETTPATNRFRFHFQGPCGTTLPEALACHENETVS
# Sequence of DNA repair protein RAD52 homolog (P43351 whole entry): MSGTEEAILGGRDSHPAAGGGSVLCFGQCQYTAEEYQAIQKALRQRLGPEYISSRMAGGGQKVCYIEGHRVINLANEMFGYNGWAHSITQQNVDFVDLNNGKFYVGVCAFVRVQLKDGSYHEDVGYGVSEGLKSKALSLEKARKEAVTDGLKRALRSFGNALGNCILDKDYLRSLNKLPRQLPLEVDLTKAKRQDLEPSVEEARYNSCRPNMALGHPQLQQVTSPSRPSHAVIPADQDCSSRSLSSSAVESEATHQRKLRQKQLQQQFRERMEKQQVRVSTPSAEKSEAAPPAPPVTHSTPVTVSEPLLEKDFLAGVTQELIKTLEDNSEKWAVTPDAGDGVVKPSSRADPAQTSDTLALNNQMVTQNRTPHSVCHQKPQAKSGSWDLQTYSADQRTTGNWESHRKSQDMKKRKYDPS
smiles,measurement,setting,value
CCCCC(=O)N1CCN(c2ccc(OC)cc2[N+](=O)[O-])CC1,AC50,[1],< 21.5 µM (active)
CCCCCCCCCCOC(=O)C[n+]1c(COc2cccc(C)c2)n(C)c2ccccc21,AC50,[2],11.9 µM (active)
same,EC50,Streptococcus,7.73 µM (active)
same,AC50,[3],3.19 µM (active)
same,AC50,INS1,3.87 µM (active)
same,EC50,[4],4.16 µM (active)
same,AC50,[5],32.5 µM (active)
same,EC50,[6],> 60 µM (not active)
same,EC50,[7],1 µM (active)
same,EC50,Protein RecA,9.88 µM (active)
same,IC50,[8],15.9 µM (active)
same,IC50,[9],> 20 µM (inactive)
same,EC50,Melanocortin receptor 4,> 89.2 µM (inactive)
CS(=O)(=O)c1ccc(-c2cnc3c(NC=O)cc(-c4ccsc4)cn23)cc1,IC50,H9c2,4.99 µM (active)
same,AC50,HeLa,> 52 µM (inactive)
COc1cc(-n2nc(C)c3c2OC(N)=C(C#N)C3c2ccccc2)c(Cl)c(Br)c1O (stereo unspecified),AC50,[3],15.6 µM (active)
same,Ki,fMet-Leu-Phe receptor,32.5 µM (inactive)
same,EC50,Protein RecA,3.47 µM (active)
Oc1nc2ccccc2n1C1CCN(C(c2cc3ccccc3o2)c2nnnn2-c2ccc3c(c2)OCCO3)CC1 (stereo unspecified),AC50,[10],11.6 µM (active)
same,AC50,Paired box protein Pax-8,5.8 µM (active)
same,AC50,[11],24.3 µM (active)
same,AC50,[12],39.1 µM (active)
same,AC50,[13],8.87 µM (active)
same,AC50,[14],15.5 µM (active)
same,AC50,[15],12.6 µM (active)
O=C(Cc1cccc(NC(=O)C2CCCN(C(=O)C3CCCC3)C2)c1)Nc1cccc(C(=O)N2CCOCC2)c1 (stereo unspecified),AC50,[16],> 30 µM (inactive)
